Data published in US20250154169A1, “COMPOUNDS AND METHODS FOR MODULATING SPLICING” (REMIX THERAPEUTICS INC., priority 2021, published 2025).
Read-outs that look alike come from different tables or passages of the source.

Key:
HTT mRNA = experiment: Splicing RT-qPCR assay, HTT canonical (CJ) and alternative (AJ) junction mRNA; assay type: cell-based, human; conditions: Homo sapiens, A673 or K562 cells, 24 hours compound treatment; for IC50: read-out: HTT CJ (IC50, decrease in canonical junction mRNA); for AC50: read-out: HTT AJ (AC50, increase in alternative junction mRNA)
Method in brief: (§1)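 Compound-induced exon inclusion is tracked as an increase in AJ transcript alongside the CJ transcript. Cells (A673 normalized to PPIA; K562 to GAPDH or GUSB) are dosed 24 h with a serial dilution topping at 10 uM, ≤0.25% DMSO, then lysed and analysed by RT-qPCR in at least duplicate.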

MYB mRNA = experiment: Splicing RT-qPCR assay, MYB canonical (CJ) and alternative (AJ) junction mRNA; assay type: cell-based, human; conditions: Homo sapiens, A673 or K562 cells, 24 hours compound treatment, RT-qPCR; for AC50: read-out: MYB AJ (AC50, increase in alternative junction mRNA); for IC50: read-out: MYB CJ (IC50, decrease in canonical junction mRNA)
Method in brief: as §1

CCn1cc2c([C@@]34CCNCC3C4)ccc(C(=O)Nc3cc(F)c4nc(C)cn4c3)c2n1 (some centres unmarked) [Compound 513]
IC50 (HTT mRNA; 24 h): 1000 to 10000 nM
AC50 (HTT mRNA): > 10000 nM
AC50 (MYB mRNA; 24 h): 100 to 1000 nM
IC50 (MYB mRNA; 24 h): 100 to 1000 nM

Cc1cn2cc(NC(=O)c3ccc(N4CCC(N5C6CNCC65)C4)c4cn(C)nc34)cc(F)c2n1 (centres unmarked) [Compound 622, 4-(3-{3,6-diazabicyclo[3.1.0]hexan-6-yl}pyrrolidin-1-yl)-N-{8-fluoro-2-methylimidazo[1,2-a]pyridin-6-yl}-2-methylindazole-7-carboxamide]
AC50 (HTT mRNA): > 10000 nM
IC50 (HTT mRNA): > 10000 nM
AC50 (MYB mRNA): > 10000 nM
IC50 (MYB mRNA): 1000 to 10000 nM

CCn1cc2c(N3CCC(NC4CC4)CC3)cc(Cl)c(C(=O)Nc3cc(F)c4nc(C)cn4c3)c2n1 [Compound 627]
IC50 (HTT mRNA; 24 h): 1000 to 10000 nM
AC50 (HTT mRNA): 1000 to 10000 nM
AC50 (MYB mRNA; 24 h): 100 to 1000 nM
IC50 (MYB mRNA; 24 h): 100 to 1000 nM

Cc1cn2cc(NC(=O)c3ccc(N4CCN[C@@H](C(C)C)C4)c4cn(C)nc34)cc(F)c2n1 [Compound 589, N-{8-fluoro-2-methylimidazo[1,2-a]pyridin-6-yl}-4-[(3S)-3-isopropylpiperazin-1-yl]-2-methylindazole-7-carboxamide]
IC50 (HTT mRNA; 24 h): > 10000 nM
AC50 (HTT mRNA): > 10000 nM
AC50 (MYB mRNA; 24 h): 1000 to 10000 nM
IC50 (MYB mRNA; 24 h): 100 to 1000 nM

Cc1cn2cc(NC(=O)c3ccc(N4CC[C@@H](NC5(C)CC5)C4)c4cn(C)nc34)cc(F)c2n1 [Compound 598]
IC50 (HTT mRNA; 24 h): 1000 to 10000 nM
AC50 (HTT mRNA): 1000 to 10000 nM
AC50 (MYB mRNA; 24 h): 100 to 1000 nM
IC50 (MYB mRNA; 24 h): < 100 nM

CCNC1CCN(c2ccc(C(=O)Nc3cn4cc(C)nc4c(F)c3OC)c3oc(C)cc23)CC1 [Compound 501, 4-(4-(ethylamino)piperidin-1-yl)-N-(8-fluoro-7-methoxy-2-methylimidazo[1,2-a]pyridin-6-yl)-2-methylbenzofuran-7-carboxamide 2,2,2-trifluoroacetate]
IC50 (HTT mRNA; 24 h): < 100 nM
AC50 (HTT mRNA): < 100 nM
AC50 (MYB mRNA; 24 h): < 100 nM
IC50 (MYB mRNA; 24 h): < 100 nM

CCn1cc2c(N3CCC(NC4(CO)CC4)CC3)ccc(C(=O)Nc3cc(F)c4nc(C)cn4c3)c2n1 [Compound 590]
IC50 (HTT mRNA; 24 h): 1000 to 10000 nM
AC50 (HTT mRNA): 1000 to 10000 nM
AC50 (MYB mRNA; 24 h): 100 to 1000 nM
IC50 (MYB mRNA; 24 h): 100 to 1000 nM

CCn1cc2c(N3CCN(C)CC3)cc(F)c(C(=O)Nc3cc(F)c4nc(C)cn4c3)c2n1 [Compound 481, 2-ethyl-6-fluoro-N-{8-fluoro-2-methylimidazo[1,2-a]pyridin-6-yl}-4-(4-methylpiperazin-1-yl) indazole-7-carboxamide]
IC50 (HTT mRNA; 24 h): 100 to 1000 nM
AC50 (HTT mRNA): 1000 to 10000 nM
AC50 (MYB mRNA; 24 h): 100 to 1000 nM
IC50 (MYB mRNA; 24 h): < 100 nM

CN[C@@H]1CCN(c2ccc(C(=O)Nc3cn4cc(C)nc4c(N4CCOCC4)n3)c3nn(C)cc23)C1 [Compound 612, 2-methyl-N-[2-methyl-8-(morpholin-4-yl)imidazo[1,2-a]pyrazin-6-yl]-4-[(3R)-3-(methylamino)pyrrolidin-1-yl]indazole-7-carboxamide]
IC50 (HTT mRNA; 24 h): > 10000 nM
AC50 (HTT mRNA): > 10000 nM
AC50 (MYB mRNA; 24 h): > 10000 nM
IC50 (MYB mRNA; 24 h): > 10000 nM

CN[C@@H]1CCN(c2ccc(C(=O)Nc3cn4cc(C)nc4c(Oc4ccccc4)n3)c3nn(C)cc23)C1 [Compound 610, 2-methyl-N-{2-methyl-8-phenoxyimidazo[1,2-a]pyrazin-6-yl}-4-[(3R)-3-(methylamino)pyrrolidin-1-yl]indazole-7-carboxamide]
IC50 (HTT mRNA; 24 h): > 10000 nM
AC50 (HTT mRNA): 1000 to 10000 nM
AC50 (MYB mRNA; 24 h): 100 to 1000 nM
IC50 (MYB mRNA; 24 h): 100 to 1000 nM

CCn1cc2c(N3CC[C@@H](N(C)C)C3)cc(Cl)c(C(=O)Nc3cc(F)c4nc(C)cn4c3)c2n1 [Compound 619, 6-chloro-4-[(3R)-3-(dimethylamino)pyrrolidin-1-yl]-2-ethyl-N-{8-fluoro-2-methylimidazo[1,2-a]pyridin-6-yl}indazole-7-carboxamide]
IC50 (HTT mRNA; 24 h): > 10000 nM
AC50 (HTT mRNA): > 10000 nM
AC50 (MYB mRNA; 24 h): 100 to 1000 nM
IC50 (MYB mRNA; 24 h): 100 to 1000 nM

CCn1cc2c(N3CCC4(CC3)CCN4C)ccc(C(=O)Nc3cc(F)c4nc(C)cn4c3)c2n1 [Compound 401, 2-ethyl-N-(8-fluoro-2-methylimidazo[1,2-a]pyridin-6-yl)-4-(1-methyl-1,7-diazaspiro[3.5]nonan-7-yl)-2H-indazole-7-carboxamide 2,2,2-trifluoroacetate]
IC50 (HTT mRNA; 24 h): 100 to 1000 nM
AC50 (HTT mRNA): 100 to 1000 nM
AC50 (MYB mRNA; 24 h): < 100 nM
IC50 (MYB mRNA; 24 h): < 100 nM

CCn1cc2c(N3CC4(CCCN4)C3)ccc(C(=O)Nc3cc(F)c4nc(C)cn4c3)c2n1 [Compound 482, 4-{2,5-diazaspiro[3.4]octan-2-yl}-2-ethyl-N-{8-fluoro-2-methylimidazo[1,2-a]pyridin-6-yl}indazole-7-carboxamide]
IC50 (HTT mRNA; 24 h): > 10000 nM
AC50 (HTT mRNA): > 10000 nM
AC50 (MYB mRNA; 24 h): 1000 to 10000 nM
IC50 (MYB mRNA; 24 h): 1000 to 10000 nM

CCNC1CCN(c2ccc(C/N=C3\C=C(F)c4nc(C)cn4C3)c3nn(C)cc23)CC1 [Compound 500, N-ethyl-1-[7-({[(6E)-8-fluoro-2-methyl-5H-imidazo[1,2-a]pyridin-6-ylidene]amino}methyl)-2-methylindazol-4-yl]piperidin-4-amine]
IC50 (HTT mRNA; 24 h): > 10000 nM
AC50 (HTT mRNA): > 10000 nM
AC50 (MYB mRNA; 24 h): > 10000 nM
IC50 (MYB mRNA; 24 h): > 10000 nM

CCn1cc2c(N3CC[C@@H](N(C)C)C3)cc(O)c(C(=O)Nc3cc(F)c4nc(C)cn4c3)c2n1 [Compound 637]
IC50 (HTT mRNA; 24 h): 1000 to 10000 nM
AC50 (HTT mRNA): 1000 to 10000 nM
AC50 (MYB mRNA; 24 h): 1000 to 10000 nM
IC50 (MYB mRNA; 24 h): 100 to 1000 nM

CCn1cc2c(N3CCN4CCOC[C@H]4C3)ccc(C(=O)Nc3cc(F)c4nc(C)cn4c3)c2n1 [Compound 537, 4-[(9aR)-hexahydro-1H-pyrazino[2,1-c][1,4]oxazin-8-yl]-2-ethyl-N-{8-fluoro-2-methylimidazo[1,2-a]pyridin-6-yl}indazole-7-carboxamide]
IC50 (HTT mRNA; 24 h): > 10000 nM
AC50 (HTT mRNA): > 10000 nM
AC50 (MYB mRNA; 24 h): 1000 to 10000 nM
IC50 (MYB mRNA; 24 h): 1000 to 10000 nM

Cc1nnc2ccc(NC(=O)c3ccc(N4CCNCC4)c4cn(C)nc34)cn12 [Compound 488, 2-methyl-N-{3-methyl-[1,2,4]triazolo[4,3-a]pyridin-6-yl}-4-(piperazin-1-yl) indazole-7-carboxamide]
IC50 (HTT mRNA; 24 h): > 10000 nM
AC50 (HTT mRNA): > 10000 nM
AC50 (MYB mRNA; 24 h): > 10000 nM
IC50 (MYB mRNA; 24 h): > 10000 nM

CCn1cc2c(OC3CCNCC3)ccc(C(=O)Nc3cc(F)c4nc(C)cn4c3)c2n1 [Compound 505, 2-ethyl-N-{8-fluoro-2-methylimidazo[1,2-a]pyridin-6-yl}-4-(piperidin-4-yloxy) indazole-7-carboxamide]
IC50 (HTT mRNA; 24 h): 1000 to 10000 nM
AC50 (HTT mRNA): 1000 to 10000 nM
AC50 (MYB mRNA; 24 h): 100 to 1000 nM
IC50 (MYB mRNA; 24 h): 100 to 1000 nM

Cc1cn2cc(NC(=O)c3ccc(N4CCNCC4)c4cn(C5CCC5)nc34)cc(F)c2n1 [Compound 391, 2-cyclobutyl-N-{8-fluoro-2-methylimidazo[1,2-a]pyridin-6-yl}-4-(piperazin-1-yl) indazole-7-carboxamide]
IC50 (HTT mRNA; 24 h): > 10000 nM
AC50 (HTT mRNA): 1000 to 10000 nM
AC50 (MYB mRNA; 24 h): 100 to 1000 nM
IC50 (MYB mRNA; 24 h): < 100 nM

Cc1cn2cc(NC(=O)c3ccc(N4CC[C@@H](NC5(C#N)CC5)C4)c4cn(C)nc34)cc(F)c2n1 [Compound 596, 4-[(3R)-3-[(1-cyanocyclopropyl)amino]pyrrolidin-1-yl]-N-{8-fluoro-2-methylimidazo[1,2-a]pyridin-6-yl}-2-methylindazole-7-carboxamide]
IC50 (HTT mRNA; 24 h): > 10000 nM
AC50 (HTT mRNA): > 10000 nM
AC50 (MYB mRNA; 24 h): 1000 to 10000 nM
IC50 (MYB mRNA; 24 h): 1000 to 10000 nM

Cc1cn2cc(NC(=O)c3ccc(N4CC[C@@H](NCC5CC5)C4)c4cn(C)nc34)cc(F)c2n1 [Compound 522, 4-[(3R)-3-[(cyclopropylmethyl)amino]pyrrolidin-1-yl]-N-{8-fluoro-2-methylimidazo[1,2-a]pyridin-6-yl}-2-methylindazole-7-carboxamide]
IC50 (HTT mRNA; 24 h): 1000 to 10000 nM
AC50 (HTT mRNA): 1000 to 10000 nM
AC50 (MYB mRNA; 24 h): 100 to 1000 nM
IC50 (MYB mRNA; 24 h): < 100 nM

CN[C@@H]1CCN(c2ccc(C(=O)Nc3cn4cc(C)nc4c(Cl)n3)c3nn(C)cc23)C1 [Compound 614]
IC50 (HTT mRNA; 24 h): > 10000 nM
AC50 (HTT mRNA): > 10000 nM
AC50 (MYB mRNA; 24 h): 100 to 1000 nM
IC50 (MYB mRNA; 24 h): 100 to 1000 nM

Cc1cn2cc(NC(=O)c3ccc(N4CC[C@@H](NC(C)C)C4)c4cn(C)nc34)cc(F)c2n1 [Compound 524, N-{8-fluoro-2-methylimidazo[1,2-a]pyridin-6-yl}-4-[(3R)-3-(isopropylamino)pyrrolidin-1-yl]-2-methylindazole-7-carboxamide]
IC50 (HTT mRNA; 24 h): > 10000 nM
AC50 (HTT mRNA): > 10000 nM
AC50 (MYB mRNA; 24 h): < 100 nM
IC50 (MYB mRNA; 24 h): < 100 nM

CCn1cc2c(N3CCN[C@@H](C4CC4)C3)ccc(C(=O)Nc3cc(F)c4nc(C)cn4c3)c2n1 [Compound 541, 4-[(3S)-3-cyclopropylpiperazin-1-yl]-2-ethyl-N-{8-fluoro-2-methylimidazo[1,2-a]pyridin-6-yl}indazole-7-carboxamide]
IC50 (HTT mRNA; 24 h): > 10000 nM
AC50 (HTT mRNA): > 10000 nM
AC50 (MYB mRNA; 24 h): 100 to 1000 nM
IC50 (MYB mRNA; 24 h): 100 to 1000 nM

CCn1cc2c(N3CCC4(CCN4)CC3)ccc(C(=O)Nc3cc(F)c4nc(C)cn4c3)c2n1 [Compound 394, 4-{1,7-diazaspiro[3.5]nonan-7-yl}-2-ethyl-N-{8-fluoro-2-methylimidazo[1,2-a]pyridin-6-yl}indazole-7-carboxamide]
IC50 (HTT mRNA; 24 h): 1000 to 10000 nM
AC50 (HTT mRNA): 1000 to 10000 nM
AC50 (MYB mRNA; 24 h): 100 to 1000 nM
IC50 (MYB mRNA; 24 h): 100 to 1000 nM

Cc1cn2cc(NC(=O)c3ccc(N4CC[C@@H](NC5CC(O)C5)C4)c4cn(C)nc34)cc(F)c2n1 (some centres unmarked) [Compound 602]
IC50 (HTT mRNA; 24 h): 1000 to 10000 nM
AC50 (HTT mRNA): 1000 to 10000 nM
AC50 (MYB mRNA; 24 h): 100 to 1000 nM
IC50 (MYB mRNA; 24 h): < 100 nM
